Laboratory results as given in patent US20040019429A1, “Methods and systems for analyzing complex biological systems” (priority 2001, published 2004).

Assays:
[1] = tested on: Arabidopsis thaliana plants; test: SOA1 phenotypic analysis of herbicide-treated plants (MIC, Tmic, leaf traits, symptom class); format: in vivo; details: for Characteristic symptoms of treated plants (in words): SOA1 phenotypic analysis; for leafCurling (Dev.) / leafTwisting (Dev.) / leafWidth (Dev.) / matureLeafAnthocyanins (Dev.) / matureLeafChlorosis (Dev.) / matureLeafNecrosis (Dev.) / newLeafAnthocyanins (Dev.) / newLeafChlorosis (Dev.) / newLeafNecrosis (Dev.) / pointedLeaves (Dev.): numeric value standardized to mock treated plants; for leafCurling (Dev.) / leafTwisting (Dev.) / leafWidth (Dev.) / matureLeafAnthocyanins (Dev.) / matureLeafChlorosis (Dev.) / matureLeafNecrosis (Dev.) / newLeafAnthocyanins (Dev.) / newLeafChlorosis (Dev.) / newLeafNecrosis (Dev.) / pointedLeaves (Dev.) / tMic (Dev.): SOA1; for tMic (Dev.): score for time to full range of symptoms at the MIC
[2] = tested on: Saccharomyces cerevisiae wild type strain BY4743; test: AF1 yeast metabolite analysis by GC-MS and LC-MS after antifungal drug treatment; format: cell-based

| Compound | Characteristic symptoms of treated plants (in words) [1] | leafCurling (Dev.) [1] | leafTwisting (Dev.) [1] | leafWidth (Dev.) [1] | matureLeafAnthocyanins (Dev.) [1] | matureLeafChlorosis (Dev.) [1] | matureLeafNecrosis (Dev.) [1] | newLeafAnthocyanins (Dev.) [1] | newLeafChlorosis (Dev.) [1] | newLeafNecrosis (Dev.) [1] | pointedLeaves (Dev.) [1] | tMic (Dev.) [1] | other results |
| --- | --- | --- | --- | --- | --- | --- | --- | --- | --- | --- | --- | --- | --- |
| CN(C)C(=O)Nc1ccc(Cl)c(Cl)c1 [Diuron] | rapid and widespread leaf necrosis | 1 | 0 | −2 | 0 | 2 | 4 | newLeafAnthocyanins 0 | 2 | 4 | 1 | 1 |  |
| CC(C)N1C(=O)c2ccccc2NS1(=O)=O [Bentazon] | rapid and widespread leaf necrosis |  |  |  |  |  |  |  |  |  |  |  |  |
| COC(=O)c1cc(Oc2ccc(Cl)cc2Cl)ccc1[N+](=O)[O-] [Bifenox] | Necrotic leaf flecks |  |  |  |  |  |  |  |  |  |  |  |  |
| OC(Cn1cncn1)(Cn1cncn1)c1ccc(F)cc1F [Fluconazole] |  |  |  |  |  |  |  |  |  |  |  |  | Fold Change, abscisic acid ([2]; platform LC): 0; Fold Change, adenosine ([2]; platform LC): 0 |
| CC[C@@H]([C@H](C)O)n1ncn(-c2ccc(N3CCN(c4ccc(OC[C@@H]5CO[C@@](Cn6cncn6)(c6ccc(F)cc6F)C5)cc4)CC3)cc2)c1=O [Posaconazote] |  |  |  |  |  |  |  |  |  |  |  |  | Fold Change, porphobilinogen ([2]; metabolite porphobilinogen, platform nLC, p-Value 1): 0 |
| O=C(O)COc1ccc(Cl)cc1Cl [2,4-D] |  | 1 | 2 | −1 | 1 | 2 | 0 | 0 | 1 | 0 | 0 | 2 | Symptom Class ([1]; three-week-old Arabidopsis plants treated with herbicide): 5 |
| CSc1nnc(C(C)(C)C)c(=O)n1N [Metribuzin] | rapid and widespread leaf necrosis |  |  |  |  |  |  |  |  |  |  |  |  |
| CCc1cnc(C2=NC(C)(C(C)C)C(=O)N2)c(C(=O)O)c1 (stereo not drawn) [Imazethapyr] | anthocyanin accumulation in the older leaves accompanied by chlorosis of the newly emerging leaves |  |  |  |  |  |  |  |  |  |  |  |  |
| CCNc1nc(Cl)nc(NC(C)C)n1 [Atrazine] | rapid and widespread leaf necrosis |  |  |  |  |  |  |  |  |  |  |  |  |
| O=C(O)c1cc(Oc2ccc(C(F)(F)F)cc2Cl)ccc1[N+](=O)[O-] [Acifluorfen] | Necrotic leaf flecks |  |  |  |  |  |  |  |  |  |  |  |  |
| C[n+]1ccc(-c2cc[n+](C)cc2)cc1 [Paraquat] | rapid and widespread leaf necrosis | 2 | 0 | −1 | 0 | 1 | 4 | 0 | 1 | 4 | 1 | 2 |  |
| c1cc[n+]2c(c1)-c1cccc[n+]1CC2 [Diquat] | rapid and widespread leaf necrosis | 2 | 0 | −2 | 0 | 1 | 4 | 0 | 1 | 4 | 1 | 2 |  |
